The subject of data set [1] is heart of hibernating ground squirrels. The note with it: in vivo, ip.
Protocol: The overall strategy of these experiments was to measure incorporation of isotope from infused ^13C-BHB into the brain pool of ^13C-BHB and into the tricarboxylic acid (TCA) cycle-derived metabolites such as glutamate, glutamine and aspartate. The same experiments were performed in parallel using [1-^13C2]-glucose (FIG. 1). A quantitative determination of BHB blood-brain transport and a rate of consumption (relative to glucose consumption) was determined in non-hibernating ground squirrels at euthermic temperatures and in hibernating ground squirrels at 4-6° C. Ground squirrels were anesthetized (isoflurane) prior to placement in the magnet of the magnetic resonance (MR) instrument and were injected with ^13C-BHB or [1-^13C2]-glucose.
For data set [2], the system named is rats subjected to 60% blood loss. Description: Rat hemorrhagic shock, 60% blood loss (Example 3). Type of data set: in vivo. As for the experimental part: Rats infused with ketone bodies were subjected to 60% blood loss for at least 1 hour, followed by return of the shed blood. Endpoint measures of neuroprotection were quantitative analysis of neuronal survival and apoptosis in cortex, hippocampus and cerebellum as well as neurologic function exam scores. The objective was to determine the effectiveness of the D-form of beta-hydroxybutyrate (D-BHB) in conjunction with melatonin in protecting the brain from ischemia and providing protection from reperfusion injury after blood return.
The goal of the following experiments was to maintain 60% blood loss for at least three hours using a minimal amount of fluid in order to maintain viability. Sixty-percent blood loss was calculated by using the equation: Total blood volume=Animal body weight×0.06. A bolus volume of 1 ml ischemia/reperfusion protection composition per kilogram of animal body weight was given to animals after approximately 40% blood loss. Some animals only received a single 1 ml/kg bolus, while other animals received a slow infusion (100 μl/hr) to imitate an intravenous drip of solution after the bolus was given. […]
Once rats were fully anesthesized and stabilized for a 20 min period, blood loss was begun. […] Temperature was monitored with a rectal probe. […] Animal death was recorded when blood pressure, respiration, and precordial movement ceased (see FIG. 9 for a timeline). […]

The values that follow come from patent US9186340B2, “Ischemia/reperfusion protection compositions and methods of using” (priority 2007, dated 2015).

As to `[13CH3][C@@H](O)[13CH2]C(=O)O` [^13C-D-BHB, [2,4-^13C] D-beta-hydroxybutyrate], the “transport into the heart during hibernation” value in data set [1] was “efficiently transported into the heart”.

On to `C[C@@H](O)CC(=O)O` [D-BHB, D-beta-hydroxybutyrate], for which, in data set [2] (60% blood loss, same osmolarity NaCl comparator), the “survival following hemorrhagic shock versus 4 M NaCl” value is given as “survived longer”. Further, the “survival versus NaCl, bolus followed by infusion” value in data set [2] (bolus followed by 100 μl/hr infusion, p-value<0.016) is on record as “lived significantly longer”.
